Results on 25 molecules are retold here after patent publication US20250145594A1, “MODULATORS OF THE INTEGRATED STRESS PATHWAY” (Calico Life Sciences LLC, priority 2020, published 2025).

pEC50: −log10 of the molar value.

The test system of this assay is ATF4 luciferase reporter in HEK293T cells. The experiment in a line: ATF4-Luc assay (in vitro model of VWMD). The assay is classed as cell-based, human. The following applies: Homo sapiens, HEK-293T, 7 h, HEK293T cells carrying the ATF4 luciferase reporter, 1 μg/mL tunicamycin, One Glo luminescence. The method, boiled down:
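Stable HEK293T line expressing firefly luciferase behind the human ATF4 5′-UTR, treated with 1 μg/mL tunicamycin plus compound for 7 hours. Luminescence read with One Glo; EC50 determined.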
`O=C(NC12CC(n3cc(OCCCOC(F)(F)F)cn3)(C1)C2)[C@H]1C[C@@H](O)c2cc(C(F)(F)F)ccc2O1` [Compound 435, (2R,4R)-4-hydroxy-N-(3-{4-[3-(trifluoromethoxy)propoxy]-1H-pyrazol-1-yl}bicyclo[1.1.1]pentan-1-yl)-6-(trifluoromethyl)-3,4-dihydro-2H-1-benzopyran-2-carboxamide]: the pEC50 is more than 8.00.

On to `O=C(NC12CC(n3cc(OCCOC(F)(F)F)cn3)(C1)C2)[C@H]1C[C@H](O)c2cc(Cl)c(Cl)cc2O1` [Compound 436, (2R,4S)-6,7-dichloro-4-hydroxy-N-(3-{4-[2-(trifluoromethoxy)ethoxy]-1H-pyrazol-1-yl}bicyclo[1.1.1]pentan-1-yl)-3,4-dihydro-2H-1-benzopyran-2-carboxamide], for which the negative logarithm of the EC50 (pEC50) was more than 8.00.

Take `O=C(NC12CC(n3cc(NCCOC(F)(F)F)cn3)(C1)C2)[C@H]1C[C@@H](O)c2cc(Cl)ccc2O1` [Compound 437, (2R,4R)-6-chloro-4-hydroxy-N-[3-(4-{[2-(trifluoromethoxy)ethyl]amino}-1H-pyrazol-1-yl)bicyclo[1.1.1]pentan-1-yl]-3,4-dihydro-2H-1-benzopyran-2-carboxamide]: the negative-log EC50 (pEC50) was 7.30 to 8.00.

Regarding `O=C(NC12CC(c3ccc(OCCCOC(F)(F)F)nc3)(C1)C2)[C@H]1C[C@@H](O)c2cc(Cl)ccc2O1` [Compound 438, (2R,4R)-6-chloro-4-hydroxy-N-(3-{6-[3-(trifluoromethoxy)propoxy]pyridin-3-yl}bicyclo[1.1.1]pentan-1-yl)-3,4-dihydro-2H-1-benzopyran-2-carboxamide], the negative-log EC50 (pEC50) is 7.30 to 8.00.

For the molecule `C[C@@H](COC(F)(F)F)Oc1cnn(C23CC(NC(=O)[C@H]4C[C@@H](O)c5cc(Cl)ccc5O4)(C2)C3)c1` [Compound 439, (2R,4R)-6-chloro-4-hydroxy-N-[3-(4-{[(2S)-1-(trifluoromethoxy)propan-2-yl]oxy}-1H-pyrazol-1-yl)bicyclo[1.1.1]pentan-1-yl]-3,4-dihydro-2H-1-benzopyran-2-carboxamide], the negative logarithm of the EC50 (pEC50) was more than 8.00.

As for `C[C@H](COC(F)(F)F)Oc1cnn(C23CC(NC(=O)[C@H]4C[C@@H](O)c5cc(Cl)ccc5O4)(C2)C3)c1` [Compound 440, (2R,4R)-6-chloro-4-hydroxy-N-[3-(4-{[(2R)-1-(trifluoromethoxy)propan-2-yl]oxy}-1H-pyrazol-1-yl)bicyclo[1.1.1]pentan-1-yl]-3,4-dihydro-2H-1-benzopyran-2-carboxamide], the negative logarithm of the EC50 (pEC50) was 7.30 to 8.00.

Turning to `C[C@@H](COC(F)(F)F)Oc1cnn(C23CC(NC(=O)[C@H]4C[C@@H](O)c5cc(C(F)(F)F)ccc5O4)(C2)C3)c1` [Compound 441, (2R,4R)-4-hydroxy-N-[3-(4-{[(2S)-1-(trifluoromethoxy)propan-2-yl]oxy}-1H-pyrazol-1-yl)bicyclo[1.1.1]pentan-1-yl]-6-(trifluoromethyl)-3,4-dihydro-2H-1-benzopyran-2-carboxamide], the pEC50 is 7.30 to 8.00.

As for `O=C(NC12CC(n3cc(OCCOC(F)(F)F)cn3)(C1)C2)[C@H]1C[C@@H](O)c2cc(Cl)c(Cl)cc2O1` [Compound 442, (2R,4R)-6,7-dichloro-4-hydroxy-N-(3-{4-[2-(trifluoromethoxy)ethoxy]-1H-pyrazol-1-yl}bicyclo[1.1.1]pentan-1-yl)-3,4-dihydro-2H-1-benzopyran-2-carboxamide], the pEC50 is more than 8.00.

As to `C[C@@H](COc1cnn(C23CC(NC(=O)[C@H]4C[C@@H](O)c5cc(Cl)ccc5O4)(C2)C3)c1)OC(F)(F)F` [Compound 443, (2R,4R)-6-chloro-4-hydroxy-N-(3-{4-[(2S)-2-(trifluoromethoxy)propoxy]-1H-pyrazol-1-yl}bicyclo[1.1.1]pentan-1-yl)-3,4-dihydro-2H-1-benzopyran-2-carboxamide], the pEC50 was 7.30 to 8.00.

`O=C(NC12CC(n3cc(NCCCOC(F)(F)F)cn3)(C1)C2)[C@H]1C[C@@H](O)c2cc(Cl)ccc2O1` [Compound 444, (2R,4R)-6-chloro-4-hydroxy-N-[3-(4-{[3-(trifluoromethoxy)propyl]amino}-1H-pyrazol-1-yl)bicyclo[1.1.1]pentan-1-yl]-3,4-dihydro-2H-1-benzopyran-2-carboxamide]: the negative-log EC50 (pEC50) is more than 8.00.

Turning to `C[C@@H](COC(F)(F)F)N(C)c1cnn(C23CC(NC(=O)[C@H]4C[C@@H](O)c5cc(Cl)ccc5O4)(C2)C3)c1` [Compound 445, (2R,4R)-6-chloro-4-hydroxy-N-[3-(4-{methyl[(2S)-1-(trifluoromethoxy)propan-2-yl]amino}-1H-pyrazol-1-yl)bicyclo[1.1.1]pentan-1-yl]-3,4-dihydro-2H-1-benzopyran-2-carboxamide], the negative-log EC50 (pEC50) was 5.70 to 6.30.

With `O=C(NC12CC(c3ccc(OCCOC(F)(F)F)nc3)(C1)C2)[C@H]1C[C@@H](O)c2cc(Cl)c(F)cc2O1` [Compound 446, (2R,4R)-6-chloro-7-fluoro-4-hydroxy-N-(3-{6-[2-(trifluoromethoxy)ethoxy]pyridin-3-yl}bicyclo[1.1.1]pentan-1-yl)-3,4-dihydro-2H-1-benzopyran-2-carboxamide], the pEC50 is 7.30 to 8.00.

`O=C(N[C@H]1CC[C@H](n2cc(OCCOC(F)(F)F)cn2)CC1)[C@H]1C[C@H](O)c2cc(Cl)ccc2O1` [Compound 447, (2R,4S)-6-chloro-4-hydroxy-N-[(1r,4R)-4-{4-[2-(trifluoromethoxy)ethoxy]-1H-pyrazol-1-yl}cyclohexyl]-3,4-dihydro-2H-1-benzopyran-2-carboxamide]: the pEC50 is 6.60 to 7.30.

`C[C@H](COC(F)(F)F)N(C)c1cnn(C23CC(NC(=O)[C@H]4C[C@@H](O)c5cc(Cl)ccc5O4)(C2)C3)c1` [Compound 448, (2R,4R)-6-chloro-4-hydroxy-N-[3-(4-{methyl[(2R)-1-(trifluoromethoxy)propan-2-yl]amino}-1H-pyrazol-1-yl)bicyclo[1.1.1]pentan-1-yl]-3,4-dihydro-2H-1-benzopyran-2-carboxamide]: the pEC50 was 5.70 to 6.30.

Turning to `O=C(NC12CC(c3ccc(OCCOC(F)(F)F)nc3)(C1)C2)[C@H]1C[C@@H](O)c2cc(Cl)ccc2O1` [Compound 450, (2R,4R)-6-chloro-4-hydroxy-N-(3-{6-[2-(trifluoromethoxy)ethoxy]pyridin-3-yl}bicyclo[1.1.1]pentan-1-yl)-3,4-dihydro-2H-1-benzopyran-2-carboxamide], the pEC50 was 6.60 to 7.30.

For `O=C(COc1ccc(Cl)c(F)c1)NC12CC(n3cc(OCCOC(F)(F)F)cn3)(C1)C2` [Compound 451, 2-(4-chloro-3-fluorophenoxy)-N-(3-{4-[2-(trifluoromethoxy)ethoxy]-1H-pyrazol-1-yl}bicyclo[1.1.1]pentan-1-yl)acetamide], the pEC50 is more than 8.00.

Turning to `COc1ncc(OCC(=O)NC23CC(c4ccnc(OCCCOC(F)(F)F)c4)(C2)C3)cn1` [Compound 452, 2-[(2-methoxypyrimidin-5-yl)oxy]-N-(3-{2-[3-(trifluoromethoxy)propoxy]pyridin-4-yl}bicyclo[1.1.1]pentan-1-yl)acetamide], the negative logarithm of the EC50 (pEC50) was 6.30 to 6.60.

Regarding `O=C(COc1ccc(Cl)c(F)c1)NC12CC(c3ccnc(OCCCOC(F)(F)F)c3)(C1)C2` [Compound 453, 2-(4-chloro-3-fluorophenoxy)-N-(3-{2-[3-(trifluoromethoxy)propoxy]pyridin-4-yl}bicyclo[1.1.1]pentan-1-yl)acetamide], the pEC50 is more than 8.00.

Regarding `O=C(COc1ccc(Cl)c(F)c1)NC12CC(n3cc(OCCCOC(F)(F)F)cn3)(C1)C2` [Compound 454, 2-(4-chloro-3-fluorophenoxy)-N-(3-{4-[3-(trifluoromethoxy)propoxy]-1H-pyrazol-1-yl}bicyclo[1.1.1]pentan-1-yl)acetamide], the pEC50 was more than 8.00.

Take `O=C(COc1ccc(Cl)c(F)c1)NC12CC(c3ccc(OCCCOC(F)(F)F)nc3)(C1)C2` [Compound 455, 2-(4-chloro-3-fluorophenoxy)-N-(3-{6-[3-(trifluoromethoxy)propoxy]pyridin-3-yl}bicyclo[1.1.1]pentan-1-yl)acetamide]: the pEC50 was 6.60 to 7.30.

For `O=C(COc1ccc(Cl)c(F)c1)NC12CC(c3ccc(OCCOC(F)(F)F)nc3)(C1)C2` [Compound 456, 2-(4-chloro-3-fluorophenoxy)-N-(3-{6-[2-(trifluoromethoxy)ethoxy]pyridin-3-yl}bicyclo[1.1.1]pentan-1-yl)acetamide], the pEC50 is 6.60 to 7.30.

Consider `O=C(COc1ccc(Cl)c(F)c1)N[C@H]1CC[C@H](n2cc(OCCOC(F)(F)F)cn2)CC1` [Compound 457, 2-(4-chloro-3-fluorophenoxy)-N-[(1r,4r)-4-{4-[2-(trifluoromethoxy)ethoxy]-1H-pyrazol-1-yl}cyclohexyl]acetamide], for which the pEC50 is more than 8.00.

For the molecule `O=C(NC12CC(n3cc(OCCOC(F)(F)F)cn3)(C1)C2)C1COc2cc(Cl)c(Cl)cc2O1` (stereo not shown) [Compound 458, 6,7-dichloro-N-(3-{4-[2-(trifluoromethoxy)ethoxy]-1H-pyrazol-1-yl}bicyclo[1.1.1]pentan-1-yl)-2,3-dihydro-1,4-benzodioxine-2-carboxamide], the negative-log EC50 (pEC50) was 7.30 to 8.00.

As to `O=C(N[C@H]1CC[C@H](n2cc(OCCOC(F)(F)F)cn2)CC1)[C@H]1C[C@@H](O)c2cc(Cl)c(Cl)cc2O1` [Compound 459, (2R,4R)-6,7-dichloro-4-hydroxy-N-[(1r,4R)-4-{4-[2-(trifluoromethoxy)ethoxy]-1H-pyrazol-1-yl}cyclohexyl]-3,4-dihydro-2H-1-benzopyran-2-carboxamide], the pEC50 is more than 8.00.

As for `O=C(CO[C@H]1C[C@@H](OC(F)(F)F)C1)NC12CCC(NC(=O)[C@H]3C[C@@H](O)c4cc(C(F)(F)F)ccc4O3)(CC1)C[C@@H]2O` [Compound 460, (2R,4R)-4-hydroxy-N-[(3S)-3-hydroxy-4-(2-{[(1s,3R)-3-(trifluoromethoxy)cyclobutyl]oxy}acetamido)bicyclo[2.2.2]octan-1-yl]-6-(trifluoromethyl)-3,4-dihydro-2H-1-benzopyran-2-carboxamide], the negative logarithm of the EC50 (pEC50) is more than 8.00.

What is called pEC50 is −log10 of the EC50, conventionally taken in molar units.
